Results from patent US10987359B2, “Oxadiazepinone derivatives and methods of treating hepatitis B infections” (priority 2016, dated 2021).

Tested on: HBV
Assay: HBV replication inhibition assay (BDNA assay) in HepG2.2.15 cells
Format: cell-based
Details: HBV replication assay (BDNA assay), HepG2.2.15 cells; read-out: DNA EC50
Summary of the method: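 HepG2.2.15 cells with stably integrated HBV were treated with serially diluted compounds at 0.5% DMSO for 6 days, with medium and compound refreshed at day 3. Encapsidated HBV DNA from DNase-treated supernatant was quantified by branched DNA assay. EC50 came from % inhibition versus DMSO, fitted non-linearly.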

Compound | EC50
C[C@@H]1Cc2nn3c(c2CN1C(=O)Nc1cc(Br)c(F)cc1F)C(=O)N(C)OC(CO)C3 (stereo in doubt) [Compound 089_E2, (4R*,9R)—N-(5-bromo-2,4-difluorophenyl)-4-(hydroxymethyl)-2,9-dimethyl-1-oxo-1,4,5,8,9,11-hexahydropyrido[4′,3′:3,4]pyrazolo[5,1-d][1,2,5]oxadiazepine-10(2H)-carboxamide] | 1 to 100 nM
C[C@@H]1Cc2nn3c(c2CN1C(=O)Nc1cc(Cl)c(F)cc1F)C(=O)N(C)OC(CO)C3 (stereo in doubt) [Compound 090_E2, (4R*,9R)—N-(5-chloro-2,4-difluorophenyl)-4-(hydroxymethyl)-2,9-dimethyl-1-oxo-1,4,5,8,9,11-hexahydropyrido[4′,3′:3,4]pyrazolo[5,1-d][1,2,5]oxadiazepine-10(2H)-carboxamide] | 1 to 100 nM
C[C@@H]1Cc2nn3c(c2CN1C(=O)Nc1ccc(F)c(C#N)c1)C(=O)N(C)OC(CNS(C)(=O)=O)C3 (single isomer, unassigned) [Compound 178_D2, (4R*,9R)—N-(3-cyano-4-fluorophenyl)-2,9-dimethyl-4-(methylsulfonamidomethyl)-1-oxo-1,4,5,8,9,11-hexahydropyrido[4′,3′:3,4]pyrazolo[5,1-d][1,2,5]oxadiazepine-10(2H)-carboxamide] | 1 to 100 nM
CNC(=O)C1Cn2nc3c(c2C(=O)N(C)O1)CN(C(=O)Nc1cc(Cl)c(F)cc1F)[C@H](C)C3 (stereo in doubt) [Compound 111_D2, (4R*,9R)—N10-(5-chloro-2,4-difluorophenyl)-N4,2,9-trimethyl-1-oxo-1,4,5,8,9,11-hexahydropyrido[4′,3′:3,4]pyrazolo[5,1-d][1,2,5]oxadiazepine-4,10(2H)-dicarboxamide] | 1 to 100 nM
C[C@@H]1Cc2nn3c(c2CN1C(=O)Nc1ccc(F)c(C#N)c1)C(=O)N(C)OC(CNCC(F)F)C3 (stereo in doubt) [Compound 183_D2, (4R*,9R)—N-(3-cyano-4-fluorophenyl)-4-(((2,2-difluoroethyl)amino)methyl)-2,9-dimethyl-1-oxo-1,4,5,8,9,11-hexahydropyrido[4′,3′:3,4]pyrazolo[5,1-d][1,2,5]oxadiazepine-10(2H)-carboxamide] | 1 to 100 nM
C[C@@H]1Cc2nn3c(c2CN1C(=O)Nc1cc(Cl)c(F)cc1F)C(=O)N(C)OC(C(=O)N(C)CC(F)F)C3 (stereo in doubt) [Compound 154_D2, (4R*,9R)—N10-(5-chloro-2,4-difluorophenyl)-N4-(2,2-difluoroethyl)-N4,2,9-trimethyl-1-oxo-1,4,5,8,9,11-hexahydropyrido[4′,3′:3,4]pyrazolo[5,1-d][1,2,5]oxadiazepine-4,10(2H)-dicarboxamide] | 1 to 100 nM

Same assay, conditions: Hepatitis B virus, HepG2.2.15, HBV replication assay (BDNA assay), HepG2.2.15 cells; read-out: DNA EC50

Compound | EC50
C[C@@H]1Cc2nn3c(c2CN1C(=O)Nc1cc(Cl)c(F)cc1F)C(=O)N(C)OC(CN(C)C)C3 (stereo in doubt) [Compound 099_D1, (4S*,9R)—N-(5-chloro-2,4-difluorophenyl)-4-((dimethylamino)methyl)-2,9-dimethyl-1-oxo-1,4,5,8,9,11-hexahydropyrido[4′,3′:3,4]pyrazolo[5,1-d][1,2,5]oxadiazepine-10(2H)-carboxamide] | 100 to 500 nM
CCC(=O)NCC1Cn2nc3c(c2C(=O)N(C)O1)CN(C(=O)Nc1ccc(F)c(Cl)c1)CC3 (centres unmarked) [Compound 197, N-(3-chloro-4-fluorophenyl)-2-methyl-1-oxo-4-(propionamidomethyl)-1,4,5,8,9,11-hexahydropyrido[4′,3′:3,4]pyrazolo[5,1-d][1,2,5]oxadiazepine-10(2H)-carboxamide] | 1 to 100 nM
C[C@@H]1Cc2nn3c(c2CN1C(=O)Nc1ccc(F)c(C#N)c1)C(=O)N(C)OC(CNCC(F)F)C3 (stereo in doubt) [Compound 183_D1, (4S*,9R)—N-(3-cyano-4-fluorophenyl)-4-(((2,2-difluoroethyl)amino)methyl)-2,9-dimethyl-1-oxo-1,4,5,8,9,11-hexahydropyrido[4′,3′:3,4]pyrazolo[5,1-d][1,2,5]oxadiazepine-10(2H)-carboxamide] | 1 to 100 nM
CC(=O)NCC1Cn2nc3c(c2C(=O)N(C)O1)CN(C(=O)Nc1ccc(F)c(C(F)(F)F)c1)CC3 (single isomer, unassigned) [Compound 175_E1, (S*)-4-(acetamidomethyl)-N-(4-fluoro-3-(trifluoromethyl)phenyl)-2-methyl-1-oxo-1,4,5,8,9,11-hexahydropyrido[4′,3′:3,4]pyrazolo[5,1-d][1,2,5]oxadiazepine-10(2H)-carboxamide] | 1 to 100 nM
CNC(=O)C1Cn2nc3c(c2C(=O)N(C)O1)CN(C(=O)Nc1ccc(F)c(Cl)c1)CC3 (centres unmarked) [Compound 073, N10-(3-chloro-4-fluoro-phenyl)-N4,2-dimethyl-1-oxo-5,8,9,11-tetrahydro-4H-pyrido[2,3]pyrazolo[2,4-d][1,2,5]oxadiazepine-4,10-dicarboxamide] | 1 to 100 nM
CN1OC(CO)Cn2nc3c(c2C1=O)CN(C(=O)Nc1ccc(F)c(Cl)c1)CC3 (single isomer, unassigned) [Compound 031_E1, (S*)—N-(3-chloro-4-fluorophenyl)-4-(hydroxymethyl)-2-methyl-1-oxo-1,4,5,8,9,11-hexahydropyrido[4′,3′:3,4]pyrazolo[5,1-d][1,2,5]oxadiazepine-10(2H)-carboxamide] | 1 to 100 nM
CN(CC(F)F)C(=O)C1Cn2nc3c(c2C(=O)N(C)O1)CN(C(=O)Nc1ccc(F)c(C#N)c1)CC3 (centres unmarked) [Compound 160, N10-(3-cyano-4-fluorophenyl)-N4-(2,2-difluoroethyl)-N4,2-dimethyl-1-oxo-1,4,5,8,9,11-hexahydropyrido[4′,3′:3,4]pyrazolo[5,1-d][1,2,5]oxadiazepine-4,10(2H)-dicarboxamide] | 1 to 100 nM
CN1OC(CO)Cn2nc3c(c2C1=O)CN(C(=O)Nc1cc(Br)c(F)cc1F)CC3 (centres unmarked) [Compound 014, N-(5-bromo-2,4-difluorophenyl)-4-(hydroxymethyl)-2-methyl-1-oxo-1,4,5,8,9,11-hexahydropyrido[4′,3′:3,4]pyrazolo[5,1-d][1,2,5]oxadiazepine-10(2H)-carboxamide] | 1 to 100 nM
CN1OC(CO)Cn2nc3c(c2C1=O)CN(C(=O)Nc1cc(Br)cc(F)c1F)CC3 (single isomer, unassigned) [Compound 140_E1, (S*)—N-(5-bromo-2,3-difluorophenyl)-4-(hydroxymethyl)-2-methyl-1-oxo-1,4,5,8,9,11-hexahydropyrido[4′,3′:3,4]pyrazolo[5,1-d][1,2,5]oxadiazepine-10(2H)-carboxamide] | 1 to 100 nM
C[C@@H]1Cc2nn3c(c2CN1C(=O)Nc1ccc(F)c(C(F)(F)F)c1)C(=O)N(C)OC(CNCC(F)F)C3 (single isomer, unassigned) [Compound 182_D1, (4S*,9R)-4-(((2,2-difluoroethyl)amino)methyl)-N-(4-fluoro-3-(trifluoromethyl)phenyl)-2,9-dimethyl-1-oxo-1,4,5,8,9,11-hexahydropyrido[4′,3′:3,4]pyrazolo[5,1-d][1,2,5]oxadiazepine-10(2H)-carboxamide] | 1 to 100 nM
CC(O)C1=NN(C)C(=O)c2c3c(nn2C1)CCN(C(=O)Nc1ccc(F)c(Cl)c1)C3 (centres unmarked) [Compound 230, N-(3-chloro-4-fluorophenyl)-4-(1-hydroxyethyl)-2-methyl-1-oxo-1,2,5,8,9,11-hexahydro-10H-pyrido[4′,3′:3,4]pyrazolo[5,1-d][1,2,5]triazepine-10-carboxamide] | 1 to 100 nM
